This is an account of results in US10716759B2, “Rehydration of micronized tecovirimat monohydrate” (SIGA TECHNOLOGIES, INC., priority 2013, dated 2020).

Structures are written as SMILES.

A short description of series [1]: Moisture content by Karl Fischer method. Format: physicochemical. The note with it: Tray rehydration (18 hours bench top, 2 hours 25° C./60% RH or 2 hours 40° C./75% RH).
For series [2] the following is noted: in vivo; cited from earlier work.
For series [3] the following is noted: intravenous administration; cited from earlier work.
The test system of a further series is authentic variola virus. The note with it: cited from earlier work.

In the case of `O=C(NN1C(=O)[C@@H]2[C@@H]3C=C[C@@H]([C@H]4C[C@@H]34)[C@@H]2C1=O)c1ccc(C(F)(F)F)cc1` [ST-246, N-[(3aR,4R,4aR,5aS,6S,6aS)-3,3a,4,4a,5,5a,6,6a-octahydro-1,3-dioxo-4,6-ethenocycloprop[f]isoindol-2(1H)-yl]-4-(trifluoromethyl)-benzamide], in series [1], the “Moisture (% w/w KF)” value is ~4.5 % w/w.

Take `Nc1ccn(C[C@@H](CO)OCP(=O)(O)O)c(=O)n1` [Cidofovir, (S)-1-(3-hydroxy-2-phosphonylmethoxypropyl)cytosine]: the Bioavailability result in series [2] is listed as “poorly bioavailable”. Also, the Nephrotoxicity result in series [3] is recorded as “dose-limiting nephrotoxicity”. Besides, the Variola virus replication entry in the series on authentic variola virus is given as “inhibit authentic variola virus replication”.
